Read-outs that look alike come from different tables or passages of the source. Where only a bound is given, the exact number is not on record here.

One experiment has as its target IRAK4 (Homo sapiens (Human), UniProt Q9NWZ3). Briefly: IRAK4 enzymatic assay (ADP-Glo luminescence). The class given is biochemical. As to conditions: human purified recombinant His-TEV-IRAK4 (1-460), ATP 2 μM, STK1-biotin peptide 300 nM. On the procedure:
IRAK4 is a human purified recombinant enzyme (His-TEV-IRAK4 (1-460)).
In this assay, IRAK4 hydrolyses ATP, autophosphorylates and phosphorylates a Serine/Threonine generic peptidic substrate (STK: 61ST1BLC from CisBio International). Measurement of IRAK-4 inhibition is performed in 384-well format based on a luminescence assay (ADP-Glo™ Kinase Assay from Promega). Purified human recombinant IRAK4 (0.3 μg/ml) and serial diluted compounds in DMSO (range of concentration from 10 μM to 0.5 nM) or controls (1% DMSO) are incubated for 15 minutes at RT in assay buffer containing 50 mM Hepes pH 7.0, Fatty acid-free BSA 0.1%, Dithiothreitol (DTT) 2 mM, MgCl2 10 mM, EGTA 0.5 mM, Triton X-100 0.01%, MnCl2 5 mM. The kinase reaction is then initiated by the addition of ATP (2 μM) and the peptidic substrate STK1-biotin peptide (300 nM). After 2 hours of incubation at RT, the reaction is stopped and the unconsumed ATP depleted by the addition of ADP-Glo™ Reagent according to supplier instructions. After 40 minutes of incubation at RT, the Kinase Detection Reagent is then added to the assay plate according to supplier instructions. After 20 minutes of incubation at RT, the luminescence signal is measured with a plate-reading luminometer (PerkinElmer Envision or equivalent reader).

The next experiment addresses IRAK1 (Homo sapiens (Human), UniProt P51617). The experiment is described as follows: IRAK1 enzymatic assay (ADP-Glo luminescence). In kind it is biochemical. How it is done:
In this assay, IRAK1 hydrolyses ATP and autophosphorylates. Measurement of IRAK-1 inhibition is performed in 384-well format based on luminescence assay (ADP-Glo™ Kinase Assay from Promega). Purified human recombinant IRAK1 ([…]) and serial diluted compounds in DMSO (range of concentration from 10 μM to 0.5 nM) or controls (1% DMSO) are incubated for 15 minutes at RT in assay buffer containing 50 mM Hepes pH 7.0, Fatty acid-free BSA 0.1%, Dithiothreitol (DTT) 2 mM, MgCl2 10 mM, EGTA 0.5 mM, Triton X-100 0.01%. The kinase reaction is then initiated by the addition of ATP at a concentration of 1μM. After 2 hours of incubation at RT, the reaction is stopped and the unconsumed ATP depleted by the addition of ADP-Glo™ Reagent according to supplier instructions. After 40 minutes of incubation at RT, the Kinase Detection Reagent is then added to the assay plate according to supplier instructions. After 20 minutes of incubation at RT, the luminescence signal is measured with a luminometer (PerkinElmer Envision or equivalent reader).

[1] abbreviates: human purified recombinant His-TEV-IRAK1 (194-712), ATP 1 μM, read-out: IRAK1 IC50.

IRAK1, sequence (P51617 194-712): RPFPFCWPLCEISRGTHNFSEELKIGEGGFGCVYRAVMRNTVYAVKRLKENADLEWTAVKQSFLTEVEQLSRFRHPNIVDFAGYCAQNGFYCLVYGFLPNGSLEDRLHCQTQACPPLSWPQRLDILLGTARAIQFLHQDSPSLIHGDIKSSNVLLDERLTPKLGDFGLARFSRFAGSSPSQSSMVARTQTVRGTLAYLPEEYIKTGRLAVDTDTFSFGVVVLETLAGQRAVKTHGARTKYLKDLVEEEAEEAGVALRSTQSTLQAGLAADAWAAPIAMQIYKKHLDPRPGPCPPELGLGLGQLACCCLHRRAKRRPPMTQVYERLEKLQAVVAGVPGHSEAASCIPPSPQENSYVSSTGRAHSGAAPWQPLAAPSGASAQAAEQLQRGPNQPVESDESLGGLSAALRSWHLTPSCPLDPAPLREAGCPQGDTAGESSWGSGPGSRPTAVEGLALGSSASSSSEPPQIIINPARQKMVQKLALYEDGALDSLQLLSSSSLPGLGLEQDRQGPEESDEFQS
IRAK4, sequence (Q9NWZ3 whole entry): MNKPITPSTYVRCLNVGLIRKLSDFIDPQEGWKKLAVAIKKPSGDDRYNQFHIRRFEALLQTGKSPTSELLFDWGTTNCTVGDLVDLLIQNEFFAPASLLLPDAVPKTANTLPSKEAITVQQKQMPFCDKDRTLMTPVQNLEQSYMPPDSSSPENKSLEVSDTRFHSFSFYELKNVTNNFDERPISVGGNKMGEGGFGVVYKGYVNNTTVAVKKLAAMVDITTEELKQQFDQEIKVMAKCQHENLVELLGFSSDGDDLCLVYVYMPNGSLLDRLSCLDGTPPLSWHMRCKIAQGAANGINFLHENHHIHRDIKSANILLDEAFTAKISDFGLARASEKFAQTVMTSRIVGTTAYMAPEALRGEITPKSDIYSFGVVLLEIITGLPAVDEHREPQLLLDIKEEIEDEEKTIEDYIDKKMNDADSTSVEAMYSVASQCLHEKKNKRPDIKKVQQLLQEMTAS

On to “9,10-dihydroxy-17-methyl-4,5,13,16,17,20,26-heptaazatetracyclo[20.3.1.1^2,^5.0^1^5,^1^9]heptacosa-1(25),2(27),3,15,18,22(26),23-heptaene-14,21-dione [Compound 36]”, for which the concentration for half-maximal inhibition (IC50) at IRAK4 is < 0.1 µM.
Same read-out and setting: then “15-methyl-4,5,11,14,15,18,24-heptaazatetracyclo[18.3.1.1^2,^5.0^13,^1^7]pentacosa-1(23),2(25),3,13,16,20(24),21-heptaene-12,19-dione [Compound 2]”, with 0.1 to 1 µM; and “17-methyl-4,5,13,16,17,20,26-heptaazatetracyclo[20.3.1.1^2,^5.0^1^5,^1^9]heptacosa-1(25),2(27),3,15,18,22(26),23-heptaene-14,21-dione [Compound 35]”, with < 0.1 µM.
As to `Cn1cc2c(n1)C(=O)NCCCCCCn1cc(cn1)-c1cccc(c1)C(=O)N2` [Compound 1, 16-methyl-4,5,12,15,16,19-hexaazatetracyclo[19.3.1.1^2,^5.0^1^4,^1^8]hexacosa-1(24),2(26),3,14,17,21(25),22-heptaene-13,20-dione], the concentration for half-maximal inhibition (IC50) against IRAK1 was 0.1 to 1 µM; at IRAK4, < 0.1 µM.
For `Cn1cc2c(n1)C(=O)NCCCCCCn1cc(cn1)-c1cccc(n1)C(=O)N2` [Compound 3, 16-methyl-4,5,12,15,16,19,25-heptaazatetracyclo[19.3.1.1^2,^5.0^1^4,^1^8]hexacosa-1(24),2(26),3,14,17,21(25),22-heptaene-13,20-dione] the same measures were 0.1 to 1 µM and < 0.1 µM.
For `Cn1cc2c(n1)C(=O)NCCCCn1cc(cn1)-c1cccc(n1)C(=O)N2` [Compound 4, 4-methyl-4,5,10,13,14, 17,23-heptaazatetracyclo[17.3.1.1^2,^5.0^12,^1^6]tetracosa-1(22),2(24),3,12,15,19(23),20-heptaene-11,18-dione], the concentration for half-maximal inhibition (IC50) against IRAK1 and at IRAK4 was 1 to 5 µM throughout.
As to `CN1CCNC(=O)c2nn(C)cc2NC(=O)c2cccc(n2)-c2cnn(c2)CCOC1=O` [Compound 5, 10,17-dimethyl-8-oxa-4,5,10,13,16,17,20,26-octaazatetracyclo[20.3.1.1^2,^5.0^1^5,^1^9]heptacosa-1(25),2(27),3,15,18,22(26),23-heptaene-9,14,21-trione], the IC50 at IRAK1 (setting [1]) and on IRAK4 was < 0.1 µM throughout.
Regarding `O=C1Nc2cn(C3CCOCC3)nc2C(=O)NCCCCCn2cc(cn2)-c2cccc1c2` [Compound 6, 15-(oxan-4-yl)-4,5,11,14,15,18-hexaazatetracyclo[18.3.1.1^2,^5.0^13,^1^7]pentacosa-1(23),2(25),3,13,16,20(24),21-heptaene-12,19-dione], the half-inhibitory concentration (IC50) at IRAK1 (setting [1]) and on IRAK4 was > 5 µM each time.
Regarding `Cn1cc2c(n1)C(=O)NCC1CN(CCO1)CCn1cc(cn1)-c1cccc(n1)C(=O)N2` (stereo not shown) [Compound 7, 18-methyl-11-oxa-4,5,8,14,17,18,21,27-octaazapentacyclo[21.3.1.1^2,^5.1^8,^12.0^1^6,^2^0]nonacosa-1 (26),2(29),3,16,19,23(27),24-heptaene-15,22-dione], the IC50 at IRAK1 was 1 to 5 µM; at IRAK4, < 0.1 µM.
`Cn1cc2c(n1)C(=O)NCC1CN(CCO1)C(=O)OCCn1cc(cn1)-c1cccc(n1)C(=O)N2` (stereo not shown) [Compound 8, 20-methyl-8,13-dioxa-4,5,10,16,19,20,23,29-octaazapentacyclo[23.3.1.1^2,^5.1^1^0,^1^4.0^1^8,^22]hentriaconta-1(28),2(31),3,18,21,25(29),26-heptaene-9,17,24-trione]: the IC50 at IRAK1 (setting [1]) was > 5 µM; at IRAK4, 0.1 to 1 µM.
With `Cn1cc2c(n1)C(=O)NCC1CCN(CCn3cc(cn3)-c3cccc(n3)C(=O)N2)C1` (stereo not shown) [Compound 9, 17-methyl-4,5,8,13,16,17,20,26-octaazapentacyclo[20.3.1.1^2,^5.1^8,^11.0^1^5,^1^9]octacosa-1(25),2(28),3,15,18,22(26),23-heptaene-14,21-dione], the concentration for half-maximal inhibition (IC50) against IRAK1 was 1 to 5 µM; on IRAK4, < 0.1 µM.
For `CN1CCNC(=O)c2nn(C)cc2NC(=O)c2cccc(n2)-c2cnn(c2)CC1` [Compound 10, 8,15-dimethyl-4,5,8,11,14,15,18,24-octaazatetracyclo[18.3.1.1^2,^5.0^13,^1^7]pentacosa-1(23),2(25),3,13,16,20(24),21-heptaene-12,19-dione] the same measures were 1 to 5 µM and 0.1 to 1 µM.
For `CN1CCCNC(=O)c2nn(C)cc2NC(=O)c2cccc(n2)-c2cnn(c2)CC1` [Compound 11, 8,16-dimethyl-4,5,8,12,15,16,19,25-octaazatetracyclo[19.3.1.1^2,^5.0^1^4,^1^8]hexacosa-1(24),2(26),3,14,17,21(25),22-heptaene-13,20-dione] the same measures were 1 to 5 µM and < 0.1 µM.
For `O=C1Nc2cn(C3CCOCC3)nc2C(=O)NCCCCCCn2cc(cn2)-c2cccc1n2` [Compound 12, 16-(oxan-4-yl)-4,5,12,15,16,19,25-heptaazatetracyclo[19.3.1.1^2,^5.0^1^4,^1^8]hexacosa-1(24),2(26),3,14,17,21 (25),22-heptaene-13,20-dione] the same measures were 0.1 to 1 µM and < 0.1 µM.
In the case of `O=C1Nc2cn(C3CCOCC3)nc2C(=O)NCCSCCCn2cc(cn2)-c2cccc1n2` [Compound 13, 6-(oxan-4-yl)-9-thia-4,5,12,15,16,19,25-heptaazatetracyclo[19.3.1.1^2,^5.0^1^4,^1^8]hexacosa-1(24),2(26),3,14,17,21(25),22-heptaene-13,20-dione], the concentration for half-maximal inhibition (IC50) against IRAK1 was 0.1 to 1 µM; at IRAK4, < 0.1 µM.
For `O=C1Nc2cn(C3CCOCC3)nc2C(=O)NCC[S+]([O-])CCCn2cc(cn2)-c2cccc1n2` (stereo not shown) [Compound 14, 16-(oxan-4-yl)-9λ^4-thia-4,5,12,15,16,19,25-heptaazatetracyclo[19.3.1.1^2,^5.0^1^4,^1^8]hexacosa-1(24),2(26),3,14,17,21(25),22-heptaene-9,13,20-trione] the same measures were 0.1 to 1 µM and < 0.1 µM.
For `O=C1Nc2cn(C3CCOCC3)nc2C(=O)NCCS(=O)(=O)CCCn2cc(cn2)-c2cccc1n2` [Compound 15, 16-(oxan-4-yl)-9λ^6-thia-4,5,12,15,16,19,25-heptaazatetracyclo[19.3.1.1^2,^5.0^1^4,^1^8]hexacosa-1(24),2(26),3,14,17,21(25),22-heptaene-9,9,13,20-tetrone] the same measures were 0.1 to 1 µM and < 0.1 µM.
For `O=C1Nc2cn(C3CCNCC3)nc2C(=O)NCCCCCCn2cc(cn2)-c2cccc1n2` [Compound 16, 16-(piperidin-4-yl)-4,5,12,15,16,19,25-heptaazatetracyclo[19.3.1.1^2,^5.0^1^4,^1^8]hexacosa-1 (24),2(26),3,14,17,21(25),22-heptaene-13,20-dione] the same measures were 0.1 to 1 µM and < 0.1 µM.
On to `CS(=O)(=O)N1CCC(n2cc3c(n2)C(=O)NCCCCCCn2cc(cn2)-c2cccc(n2)C(=O)N3)CC1` [Compound 17, 6-(1-methanesulfonylpiperidin-4-yl)-4,5,12,15,16,19,25-heptaazatetracyclo[19.3.1.1^2,^5.0^1^4,^1^8]hexacosa-1(24),2(26),3,14,17,21(25),22-heptaene-13,20-dione], for which the figures for the half-inhibitory concentration (IC50) against IRAK1 and at IRAK4 were 0.1 to 1 µM and < 0.1 µM, respectively.
For `O=C1Nc2cn(C3CCN(C(=O)C4CC4(F)F)CC3)nc2C(=O)NCCCCCCn2cc(cn2)-c2cccc1n2` (stereo not shown) [Compound 18, 16-[1-(2,2-difluorocyclopropanecarbonyl)piperidin-4-yl]-4,5,12,15,16,19,25-heptaazatetracyclo[19.3.1.1^2,^5.0^1^4,^1^8]hexacosa-1(24),2(26),3,14,17,21 (25),22-heptaene-13,20-dione] the same measures were 0.1 to 1 µM and < 0.1 µM.
Take `O=C1Nc2cn(C3CCN(C(=O)NC4CC4)CC3)nc2C(=O)NCCCCCCn2cc(cn2)-c2cccc1n2` [Compound 19, N-cyclopropyl-4-{13,20-dioxo-4,5,12,15,16,19,25-heptaazatetracyclo[19.3.1.1^2,^5.0^1^4,^1^8]hexacosa-1(24),2(26),3,14,17,21(25),22-heptaen-16-yl}piperidine-1-carboxamide]: the IC50 against IRAK1 is 0.1 to 1 µM; at IRAK4, < 0.1 µM.
Turning to “(9E)-17-methyl-4,5,13,16, 17,20,26-heptaazatetracyclo[20.3.1.1^2,^5.0^1^5,^1^9]heptacosa-1(25),2(27),3,9,15,18,22(26),23-octaene-14,21-dione [Compound 34]”, on IRAK4, the IC50 is < 0.1 µM.

(Values after patent publication US9815836B2, “Macrocyclic compounds as IRAK1/4 inhibitors and uses thereof” (Merck Patent GmbH, priority 2015, dated 2017).)
